In the NIST ThermoML archive (doi:10.1016/j.jct.2016.10.033):

Assay: xn = mol fraction of the nth substance listed
Conditions: 103 kPa, Liquid, Vibrating tube method

C=C[Si](C)(OCC)OCC [methylvinyldiethoxysilane] + CO[Si](C)(OC)c1ccccc1
mass density [kg/m3]
Conditions	298.15 K	303.15 K	308.15 K	313.15 K	318.15 K
x2 = 0	856.25	851.09	845.89	840.71	835.44
x2 = 0.05	863.72	858.61	853.46	848.28	843.09
x2 = 0.1001	871.17	866.08	860.96	855.82	850.66
x2 = 0.1499	878.58	873.53	868.43	863.33	858.2
x2 = 0.2001	885.98	880.95	875.9	870.83	865.74
x2 = 0.2501	893.45	888.45	883.43	878.38	873.33
x2 = 0.3	900.68	895.69	890.69	885.67	880.64
x2 = 0.3499	907.99	903.05	898.08	893.09	888.08
x2 = 0.4	915.28	910.36	905.41	900.45	895.47
x2 = 0.4501	922.58	917.68	912.77	907.84	902.89
x2 = 0.5	929.75	924.84	919.93	915	910.05
x2 = 0.5499	937	932.14	927.28	922.39	917.49
x2 = 0.6	944.21	939.4	934.57	929.72	924.87
x2 = 0.65	951.55	946.75	941.94	937.11	932.27
x2 = 0.6999	958.48	953.71	948.92	944.12	939.31
x2 = 0.75	965.63	960.89	956.12	951.35	946.57
x2 = 0.7999	972.72	968	963.25	958.51	953.74
x2 = 0.85	979.76	975.05	970.33	965.59	960.85
x2 = 0.8998	987.03	982.34	977.65	972.94	968.23
x2 = 0.9499	993.78	989.11	984.43	979.74	975.03
